From patent US20080171740A1, “Chemical Compounds” (SMITHKLINE BEECHAM CORPORATION, priority 2004, published 2008)
pIC50: −log10 of the molar value. Read-outs that look alike come from different tables or passages of the source.

Assays:
Assay type in all cases: cell-based
[1] = tested on: HIV-1 IIIB strain, T-tropic (CXCR4 utilizing); assay: HOS HIV-1 infectivity assay
Description: (§1) Compounds were profiled against two HIV-1 viruses, the M-tropic (CCR5 utilizing) Ba-L strain and the T-tropic (CXCR4 utilizing) IIIB strain. Both viruses were propagated in human peripheral blood lymphocytes. Compounds were tested for there ability to block infection of the HOS cell line (expressing hCXCR4/hCCR5/hCD4/pHIV-LTR-luciferase) by either HIV-1 Ba-L or HIV-1 IIIB. Compound cytotoxicity was also examined in the absence of virus addition.
(§2) HOS cells (expressing hCXCR4/hCCR5/hCD4/pHIV-LTR-luciferase) were harvested and diluted in Dulbeccos modified Eagles media supplemented with 2% FCS and non-essential amino acid to a concentration of 60,000 cells/ml. The cells were plated into 96-well plates (100 ul per well) and the plates were placed in a tissue culture incubator (37° C.; 5% CO2/95% air) for a period of 24 h.
(§3) Subsequently, 50 ul of the desired drug solution (4 times the final concentration) was added to each well and the plates were returned to the tissue culture incubator (37° C.; 5% CO2/95% air) for 1 h. Following this incubation 50 ul of diluted virus was added to each well (approximately 2 million RLU per well of virus). The plates were returned to the tissue culture incubator (37° C.; 5% CO2/95% air) and were incubated for a further 96 h.
(§4) Following this incubation the endpoint for the virally infected cultures was quantified following addition of Steady-Glo Luciferase assay system reagent (Promega, Madison, Wis.). Cell viability or non-infected cultures was measured using a CellTiter-Glo luminescent cell viability assay system (Promega, Madison, Wis.). All luminescent readouts are performed on a Topcount luminescence detector (Packard, Meridien, Conn.).

[2] = tested on: HIV-1 gp160 (HXB2 strain) mediated fusion with HOS (hCXCR4/hCCR5/hCD4/pHIV-LTR-luciferase) cells; assay: Cell/cell fusion assay (HEK-293 expressing HIV-1 tat, rev, gp160 with HOS hCXCR4/hCCR5/hCD4/pHIV-LTR-luciferase cells); details: Homo sapiens, HEK293; luciferase readout after 24 h; read-out: Fusion assay (pIC50) (converted)
Description: The complete coding sequences of HIV-1 tat (GenBank Accession No. X07861) and rev (GenBank Accession No. M34378) were cloned into pcDNA3.1 expression vectors containing G418 and hygromycin resistance genes, respectively. The complete coding sequence of the HIV-1 (HXB2 strain) gp160 envelope gene (nucleotide bases 6225-8795 of GenBank Accession No. K03455) was cloned into plasmid pCRII-TOPO. The three HIV genes were additionally inserted into the baculovirus shuttle vector, pFastBacMam1, under the transcriptional control of the CMV promoter. A construction of the pHIV-I LTR containing mutated NFkB sequences linked to the luciferase reporter gene was prepared by digesting pcDNA3.1, containing the G418 resistance gene, with Nru I and Bam HI to remove the CMV promoter. LTR-luc was then cloned into the Nru I/Bam HI sites of the plasmid vector. Plasmid preparations were performed after the plasmids were amplified in Escherichia coli strain DH5-alpha. The fidelity of the inserted sequences was confirmed by double-strand nucleotide sequencing using an ABI Prism Model 377 automated sequencer.
Recombinant BacMam baculoviruses were constructed from pFastBacMam shuttle plasmids by using the bacterial cell-based Bac-to-Bac system. Viruses were propagated in Sf9 (Spodoptera frugiperda) cells cultured in Hink's TNM-FH Insect media supplemented with 10% (v/v) fetal bovine serum and 0.1% (v/v) pluronic F-68 according to established protocols.
Human osteosarcoma (HOS) cells that naturally express human CXCR4 were transfected with human CCR5, human CD4 and the pHIV-LTR-luciferase plasmid using FuGENE 6 transfection reagent. Single cells were isolated and grown under selection condition in order to generate a stable HOS (hCXCR4/hCCR5/hCD4/pHIV-LTR-luciferase) clonal cell line. The cells were maintained in Dulbeccos modified Eagles media supplemented with 10% fetal calf serum (FCS), G418 (400 ug/ml), puromycin (1 ug/ml), mycophenolic acid (40 ug/ml), xanthine (250 ug/ml) and hypoxanthine (13.5 ug/ml) to maintain a selection pressure for cells expressing the LTR-luciferase, hCCR5 and hCD4, respectively. Human embryonic kidney (HEK-293) cells stably transfected to express the human macrophage scavenging receptor (Class A, type 1; GenBank Accession No. D90187), were maintained in DMEM/F-12 media (1:1) supplemented with 10% FCS and 1.5 ug/ml puromycin. The expression of this receptor by the HEK-293 cells enhances their ability to stick to tissue culture treated plasticware.
HEK-293 cells were harvested using enzyme-free cell dissociation buffer. The cells were resuspended in DMEM/F-12 media supplemented with 10% FCS and 1.5 ug/ml and counted. Tranductions were performed by direct addition of BacMam baculovirus containing insect cell media to cells. The cells were simultaneously transduced with BacMam baculovirus expressing HIV-1 tat, HIV-1 rev and HIV-1 gp160 (from the HXB2 HIV strain). Routinely an MOI of 10 of each virus was added to the media containing the cells. 2 mM butyric acid was also added to the cells at this stage to increase protein expression in transduced cells. The cells were subsequently mixed and seeded into a flask at 30 million cells per T225. The cells were incubated at 37° C., 5% CO2, 95% humidity for 24 h to allow for protein expression.
HEK and HOS cells were harvested in DMEM/F-12 media containing 2% FCS and DMEM media containing 2% FCS, respectively, with no selection agents added. Compounds were plated as 1 ul spots in 100% DMSO on a 96-well CulturPlate plates. HOS cells (50 ul) were added first to the wells, followed immediately by the HEK cells (50 ul). The final concentration of each cell type was 20,000 cells per well. Following these additions, the cells were returned to a tissue culture incubator (37° C.; 5% CO2/95% air) for an additional 24 h.
Following the 24 h incubation, total cellular luciferase activity was measured using the LucLite Plus assay kit (Packard, Meridien, Conn.). […]

[3] = Compound cytotoxicity in the absence of virus (CellTiter-Glo); details: human; non-infected HOS cultures, cell viability; read-out: Cytotox (pIC50) (converted)
Description: as §1, §2, §3, §4

CXCR4 receptor = biological target: T1, CXCR4 receptor (Homo sapiens, UniProt P61073); assay: Functional FLIPR assay (block of SDF-1 alpha induced [Ca2+]i change); details: HEK-293 cells with human CXCR4 BacMam and Gqi5 BacMam; antagonism of SDF-1 alpha; read-out: Functional assay (pIC50) (converted)
T1 construct: expressed in transfected cells; host or cells: HEK-293 cells (stably expressing human macrophage scavenging receptor) transduced with human CXCR4 BacMam and Gqi5 BacMam
T1 sequence (P61073 whole entry): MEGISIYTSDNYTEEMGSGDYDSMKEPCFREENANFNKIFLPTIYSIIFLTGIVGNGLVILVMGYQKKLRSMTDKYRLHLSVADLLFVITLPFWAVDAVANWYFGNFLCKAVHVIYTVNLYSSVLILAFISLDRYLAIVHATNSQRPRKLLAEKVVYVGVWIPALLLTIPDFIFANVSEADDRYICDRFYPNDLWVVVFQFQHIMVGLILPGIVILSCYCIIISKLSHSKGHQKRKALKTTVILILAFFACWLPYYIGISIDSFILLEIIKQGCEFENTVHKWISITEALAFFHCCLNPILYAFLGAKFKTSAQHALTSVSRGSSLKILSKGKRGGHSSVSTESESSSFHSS
Description: Human embryonic kidney (HEK-293) cells were maintained and harvested as described above. Cells were plated in 96-well, black clear bottom, poly-lysine coated plates at a concentration of 40,000 cells per well in a final volume of 100 ul containing human CXCR4 BacMam (MOI=25) and Gqi5 BacMam (MOI=12.5). The cells were incubated at 37° C., 5% CO2, 95% humidity for 24 h to allow for protein expression.
After the required incubation time the cells were washed once with 50 ul of fresh serum-free DMEM/F12 media containing probenicid. 50 ul of dye solution was then added to the cells (Calcium Plus Assay Kit Dye; Molecular Devices) was dissolved in 200 ml of the above probenicid/BSA containing media and incubated for 1 h. Cell plates were transferred to a Fluorometric Imaging Plate Reader (FLIPR). Upon addition the effect of the compounds on the change in [Ca^2+]i was examined to determine if the compounds were agonists or antagonists (ability to block SDF-1 alpha activity) at the CXCR4 receptor. IC50 values are determined and pKb values are calculated using the Leff and Dougall equation: KB=IC50/((2+([agonist]/EC50̂b)̂1/b -1) Where IC50 is that defined by the antagonist concentration-response curve [agonist] is the EC80 concentration of agonist used EC50 is that defined by the agonist concentration-response curve b is the slope of the agonist concentration-response curve.

[4] = Human immunodeficiency virus 1, IIIB, HOS HIV anti-infectivity assay, strain not named in Table 2, read-out: Activity Level
[5] = Human immunodeficiency virus 1, HOS cells, HIV-1 IIIB, 96 h, luciferase, read-out: HOS (3B)

SMILES	pIC50 [1, 4]	pIC50 [1, 5]	IC50 [2]	IC50 at 96 h [3]	IC50 (CXCR4 receptor)
Cc1ccn2cc(CN(CCCCN)C3CCCc4cccnc43)nc2c1 (centres unmarked) [Example 3, N-[(7-Methylimidazo[1,2-a]pyridin-2-yl)methyl]-N-(5,6,7,8-tetrahydro-8-quinolinyl)-1,4-butanediamine]	6.30 to 7.00	6.65	813 nM	> 100000 nM	759 nM
Cc1ccc2nc(CN(CCCCN)C3CCCc4cccnc43)cn2c1 (centres unmarked) [Example 4, N-[(6-Methylimidazo[1,2-a]pyridin-2-yl)methyl]-N-(5,6,7,8-tetrahydro-8-quinolinyl)-1,4-butanediamine]	> 7.00	7.24	97.7 nM	> 100000 nM	52.5 nM
Cc1cccc2nc(CN(CCCCN)C3CCCc4cccnc43)cn12 (centres unmarked) [Example 5, N-[(5-Methylimidazo[1,2-a]pyridin-2-yl)methyl]-N-(5,6,7,8-tetrahydro-8-quinolinyl)-1,4-butanediamine]	> 7.00	7.77	39.8 nM	> 100000 nM	12 nM
NCCCCN(Cc1cn2ccc(C(F)(F)F)cc2n1)C1CCCc2cccnc21 (centres unmarked) [Example 6, N-(5,6,7,8-Tetrahydro-8-quinolinyl)-N-{[7-(trifluoromethyl)imidazo[1,2-a]pyridin-2-yl]methyl}-1,4-butanediamine]	5.00 to 6.30	5.85	4470 nM	> 100000 nM	2190 nM
NCCCCN(Cc1cn2cc(C(F)(F)F)ccc2n1)C1CCCc2cccnc21 (centres unmarked) [Example 7, N-(5,6,7,8-Tetrahydro-8-quinolinyl)-N-{[6-(trifluoromethyl)imidazo[1,2-a]pyridin-2-yl]methyl}-1,4-butanediamine]	6.30 to 7.00	6.79	191 nM	> 100000 nM	63.1 nM
NCCCCN(Cc1cn2c(C(F)(F)F)cccc2n1)C1CCCc2cccnc21 (centres unmarked) [Example 8, N-(5,6,7,8-Tetrahydro-8-quinolinyl)-N-{[5-(trifluoromethyl)imidazo[1,2-a]pyridin-2-yl]methyl}-1,4-butanediamine]	> 7.00	7.35	174 nM	> 100000 nM	19.5 nM
N#Cc1ccc2nc(CN(CCCCN)C3CCCc4cccnc43)cn2c1 (centres unmarked) [Example 9, 2-{[(4-Aminobutyl)(5,6,7,8-tetrahydro-8-quinolinyl)amino]methyl}imidazo [1,2-a]pyridine-6-carbonitrile]	6.30 to 7.00	6.95	372 nM	> 100000 nM	112 nM
NCCCCN(Cc1cn2cc(Cl)ccc2n1)C1CCCc2cccnc21 (centres unmarked) [Example 10, N-[(6-Chloroimidazo[1,2-a]pyridin-2-yl)methyl]-N-(5,6,7,8-tetrahydro-8-quinolinyl)-1,4-butanediamine]	> 7.00	7.39	115 nM	> 100000 nM	29.5 nM
NCCCCN(Cc1cn2cc(F)ccc2n1)C1CCCc2cccnc21 (centres unmarked) [Example 11, N-[(6-Fluoroimidazo[1,2-a]pyridin-2-yl)methyl]-N-(5,6,7,8-tetrahydro-8-quinolinyl)-1,4-butanediamine]	> 7.00	7.48	63.1 nM	> 100000 nM	17 nM
NCCCCN(Cc1cn2c(Br)cccc2n1)C1CCCc2cccnc21 (centres unmarked) [Example 12, N-[(5-Bromoimidazo[1,2-a]pyridin-2-yl)methyl]-N-(5,6,7,8-tetrahydro-8-quinolinyl)-1,4-butanediamine]	> 7.00	8.00	28.8 nM	> 100000 nM	9.77 nM
NCCCCN(Cc1cn2c(Cl)cccc2n1)C1CCCc2cccnc21 (centres unmarked) [Example 13, N-[(5-Chloroimidazo[1,2-a]pyridin-2-yl)methyl]-N-(5,6,7,8-tetrahydro-8-quinolinyl)-1,4-butanediamine]	> 7.00	7.60	91.2 nM	> 100000 nM	40.7 nM
NCCCCN(Cc1cn2c(F)cccc2n1)C1CCCc2cccnc21 (centres unmarked) [Example 14, N-[(5-Fluoroimidazo[1,2-a]pyridin-2-yl)methyl]-N-(5,6,7,8-tetrahydro-8-quinolinyl)-1,4-butanediamine]	> 7.00	7.04	407 nM	> 100000 nM	100 nM
Cc1cc(C)n2cc(CN(CCCCN)C3CCCc4cccnc43)nc2c1 (centres unmarked) [Example 15, N-[(5,7-Dimethylimidazo[1,2-a]pyridin-2-yl)methyl]-N-(5,6,7,8-tetrahydro-8-quinolinyl)-1,4-butanediamine]	6.30 to 7.00	6.95	316 nM	> 100000 nM	93.3 nM
